Source: publication PMC9805685, “Isolation, bioassay and 3D-QSAR analysis of 8-isopentenyl flavonoids from Epimedium sagittatum maxim. as PDE5A inhibitors” (Chinese Medicine, 2022)
“And” between values parts separate entries of the source, which are not always exact repeats. Identical values can stand only once. Like-named read-outs stand apart in the source and are kept apart here.

Columns and labels:
[1] = target: T1, PDE5A1 (Homo sapiens, UniProt O76074); experiment: PDE5A1 inhibition assay, enzyme reaction with HPLC detection of cGMP; assay type: biochemical; conditions: 0.15 µg/mL PDE5A1, 7.5 µg/mL cGMP, 90 min at 35 ℃
Method: 50 μL analytes were injected and separated on the C18 5 μm column with a flow rate of 1 mL/min at 30 °C column temperature. The mobile phase consisted of methanol and 0.05 mol/L potassium dihydrogen phosphate (10:90, V/V).
All components for assay were diluted in assay buffer which contained 100 mM MgCl2 and 50 mM Tris–HCl (pH 8.0). The compounds were dissolved in DMSO and then further diluted to the desired concentration with assay buffer. 30 μL PDE5A1 solution and 30 μL compound solution were mixed at room temperature and incubated for 5 min, followed by addition of with 30 μL cGMP solution, and the reaction was carried out at 35 °C for 90 min. After the assay, each vial was incubated in 100 °C boiling water for 5 min to inactivate the PDE5A1 activity, and then was cooled to be detected with HPLC. No PDE5A1 was used as the positive control, and DMSO was used as the negative control. Percentage inhibition was calculated using the peak area of HPLC with the following formula.
For dose–response experiments, the PDE5A1 inhibitors were diluted to 7 concentrations series with fourfold gradient. Two individual operations were performed on different dates as the repetition.
For developing the screening method for PDE5A1 inhibitors, the in vitro enzyme reaction and HPLC detection were combined. […] The concentrations of enzyme and substrate are important parameters in the inhibitor screening assay.

[2] = target: T1, PDE5A1; experiment: CoMFA 3D-QSAR model prediction of PDE5A1 activity; conditions: EA minus PA
Method: (§1) All molecular modeling and calculations were performed by the Sybyl program package. The structures of all compounds were constructed using the Sketch Molecule module. Structural energy minimization was carried out using the standard Tripos molecular mechanics force field and Gasteiger-Huckle charge, with the convergence criterion set at 0.005 kcal/(Å·mol) and the max iterations for the minimization set to 10,000.
The 3D cubic lattice region was created automatically and the grid spacing was set at 1.7 Å in the x, y, and z directions. A sp^3 carbon atom with + 1 net charge was taken as the probe atom and steric and electrostatic interactions were calculated by using the Tripos force field. A cutoff of 30 kcal/mol was adopted in calculating energies. With standard options for scaling of variables, the regression analysis was carried out using partial least squares (PLS) method. The cross-validation with Leave-One-Out (LOO) option was carried out to obtain the optimum number of components (ONC).The final model (non-cross-validated conventional analysis) was developed with the optimum number of components. Region focusing is an advanced strategy that improves prediction ability of the initial built CoMFA model. CoMFA region focusing method refines a model by increasing the weights of the lattice points. StDev × coefficient values were used as weights.

[3] = system: cGMP level of CCSMCs; experiment: cGMP assay in CCSMCs by ELISA; assay type: cell-based, rat; conditions: 10 μM, 48 h
From the text: (§2) Male Sprague–Dawley (SD) rats (180–220 g) were purchased from Shanghai SLAC Laboratory Animal Co., Ltd. This experiment protocol was approved by the standardizing laboratory animal ethical review of Shanghai University of Traditional Chinese Medicine. After removal of the corpus spongiosum, subcutaneous tissue and deep fascia of penises of SD rats, the corpus cavernosum tissue was cut into small pieces of less than 2mm^3 and digested with 0.5% collagenase I and 20% fetal bovine serum (PFES) in DMEM for 4 h. The cell suspensions were collected by mesh filtration and centrifugation, and cultured in DMEM containing 20% PFES and 1 × antibiotics at 37 °C in a humidified atmosphere with 5% CO2. After 24 h culture, spindle CCSMCs attached to the culture dish. The medium was replaced with DMEM containing 10% PFES when CCSMCs reached 70% confluence.
CCSMCs were seeded in 6-well plate at a density of 100,000/well for 24 h, and then were treated with 10 μM 1 ~ 3 for 48 h. The cells were lysed by 0.1 M hydrochloric acid with 200 μl per well for 20 min incubation, then the supernatant was collected and determined the cGMP content by ELISA.

[4] = system: cytoplasmic calcium in CCSMCs; experiment: Fluorescent staining of calcium (Fluo-4AM) in CCSMCs; assay type: cell-based, rat; conditions: for fluorescence intensity of cytoplasmic calcium in CCSMCs: 10 uM, 30 min, Fluo-4 AM
From the text: as §2
CCSMCs were cultured in 6-well plate at a density of 100,000/well for 48 h. Then cells were stained by Fluo-4AM for 30 min prior to […] 1 ~ 3 exposure for 30 min in the presence or absence of 10 μM Rp-8-Br-cGMPS (the protein kinase G inhibitor). After PBS rinse, the cytosolic calcium was observed by fluorescence microscope.

[5] = target: T1, PDE5A1; experiment: CoMSIA 3D-QSAR model prediction of PDE5A1 activity; conditions: EA minus PA
Method: as §1
Although CoMSIA is similar to CoMFA, CoMSIA not only computes the steric and electrostatic fields, but also calculates additional hydrophobic, hydrogen-bond donor, and hydrogen-bond acceptor fields. CoMSIA descriptors were calculated with the same lattice box, grid spacing and probe atom as that used for the CoMFA calculations. In CoMSIA analysis, the five different descriptor fields are not totally independent from each other. Given that the size of dataset, we decided to use three of five fields as the descriptors.

[6] = target: T1, PDE5A1; conditions: converted from literature IC50; cited from earlier work

SMILES | CoMFA residual [2] | IC50 ([1]; read-out: PDE5A1 (IC50 ± SD)) | CoMSIA residual [5] | pIC50 (-logIC50), experimental activity (EA) [6] | also measured
COc1ccc(-c2oc3c(CC=C(C)C)c(O[C@@H]4O[C@H](CO)[C@@H](O)[C@H](O)[C@H]4O)cc(O)c3c(=O)c2O[C@@H]2O[C@@H](C)[C@H](O)[C@@H](O)[C@H]2O)cc1 [Compound 1, icariin] | 0.034 | – | – | – | IC50 ([1]; PDE5A1 (IC50 ± SD)): 8.28 µM and 8.27 µM; cGMP level of CCSMCs [3]: increase cGMP level; fluorescence intensity of cytoplasmic calcium in CCSMCs [4]: decrease cytoplasmic Ca^2+
COc1ccc(-c2oc3c(CC=C(C)C)c(O)cc(O)c3c(=O)c2OC2OC(C)C(O)C(O)C2OC2OC(C)C(O)C(O)C2O)cc1 (centres unmarked) [Compound 2, 2-O"-rhamnosylicaridide II] | 0.015 | 3.23 µM | – | – | cGMP level of CCSMCs [3]: increase cGMP level; fluorescence intensity of cytoplasmic calcium in CCSMCs [4]: decrease cytoplasmic Ca^2+
COc1ccc(-c2oc3c(CC=C(C)C)c(O)cc(O)c3c(=O)c2O[C@@H]2O[C@@H](C)[C@H](O)[C@@H](O)[C@H]2O)cc1 [Compound 3, baohuoside I] | – | 5.47 µM and 5.48 µM | 0.013 | – | cGMP level of CCSMCs [3]: increase cGMP level; fluorescence intensity of cytoplasmic calcium in CCSMCs [4]: decrease cytoplasmic Ca^2+
COc1ccc(-c2oc3c(CC=C(C)C)c(OC4OC(CO)C(O)C(O)C4O)cc(O)c3c(=O)c2OC2OC(C)C(O)C(O)C2OC2OC(CO)C(O)C(O)C2O)cc1 (centres unmarked) [Compound 4, epimedin A] | – | 409 ± 31.4 µM | – | – | –
COc1ccc(-c2oc3c(CC=C(C)C)c(OC4OC(CO)C(O)C(O)C4O)cc(O)c3c(=O)c2OC2OC(C)C(O)C(O)C2OC2OCC(O)C(O)C2O)cc1 (centres unmarked) [Compound 5, epimedin B] | 0.032 | 358 ± 34.2 µM | – | – | –
COc1ccc(-c2oc3c(CC=C(C)C)c(OC4OC(CO)C(O)C(O)C4O)cc(O)c3c(=O)c2OC2OC(C)C(O)C(O)C2OC2OC(C)C(O)C(O)C2O)cc1 (centres unmarked) [Compound 6, epimedin C] | – | 682 µM | 0.037 | – | –
COc1ccc(/C=C/C(=O)c2c(OCc3ccccc3)cc(OC)c(OC)c2OC)cc1OC [Compound 12] | – | – | – | 5.229 | –
COc1ccc(OC)c(C(=O)/C=C/c2ccc(OC)c(OC)c2)c1 [Compound 13] | – | – | – | 5.155 | –
Nc1nc2c(nc(Br)n2[C@@H]2O[C@@H]3COP(O)(=S)O[C@H]3[C@H]2O)c(=O)[nH]1 (some centres unmarked) [Rp-8-Br-cGMPS, reference compound] | – | – | – | – | effect on calcium down-regulation by 1 ~ 3 in CCSMCs ([4]; 10 μM Rp-8-Br-cGMPS together with 1 ~ 3, 30 min): blocked the down-regulated calcium levels
CCCc1nn(C)c2c(=O)[nH]c(-c3cc(S(=O)(=O)N4CCN(C)CC4)ccc3OCC)nc12 [Sildenafil, sildenafil] | 0.068 | – | – | – | –

Now from value to compound, other results behind:

CoMFA residual [2] | IC50 ([1]; read-out: PDE5A1 (IC50 ± SD)) | CoMSIA residual [5] | SMILES | pIC50 (-logIC50), experimental activity (EA) [6] | also measured
0.105 | – | 0.058 | COc1ccc(-c2oc3c(CC=C(C)C)c(O)cc(O)c3c(=O)c2O)cc1 [Compound 7] | – | –
– | – | 0.000 | COc1ccc(-c2oc3c(CC=C(C)C)c(OCCO)cc(O)c3c(=O)c2OC2OC(C)C(O)C(O)C2O)cc1 (centres unmarked) [Compound 8] | 6.444 | –
0.296 | – | 0.562 | COc1ccc(C(=O)/C=C\c2cc(OC)c(OC)cc2OC)c(OC)c1 [Compound 10] | 5.745 | –
0.06 | – | 0.025 | COc1cccc(/C=C/C(=O)c2c3c(c(OC)c4c2OCO4)CN(C)CC3)c1 [Compound 14] | 5.208 | –
– | – | 0.001 | CCCOc1ccccc1-c1nc2n[nH]nc2c(=O)[nH]1 [Compound 17] | – | –
